The values below come from patent publication US20140142180A1, “METHODS OF TREATING TUMORS HAVING ELEVATED MCT1 EXPRESSION” (Whitehead Institute for Biomedical Research, priority 2012, published 2014).

One assay concerns SK-BR-3 cells. Kind of assay: Cell survival assay, SK-BR-3. Type of assay: cell-based, human. On the procedure:
(§1) Cell lines (5,000-20,000) were seeded in 96-well plates and treated with indicated amounts of 3-BrPA. After 3 days of treatment, CellTiter-Glo (Promega) and/or CyQuant (Invitrogen) were used to measure survival percentage for each concentration compared to untreated cells. FACS analysis with Annexin V and 7AAD staining was performed according to manufacturer's manual (BD Pharmingen).
(§2) 15 cell lines (BT-474, BT-549, CAK1-1, CAL-51, HCC-70, HS578T, JURKAT, MDA-MB-157, MDA-MB-231, MDA-MB-453, MDA-MB-468, PC-3, SK-BR-3, T47D, ZR-75-1) were treated with 3-BrPA (0-300 μM). After 3 days, cell viability was quantified via CellTiter-Glo assay and an IC50 from the resulting dose-response curve was interpolated using a nonlinear regression model. Transcriptome-wide normalized mRNA levels from gene expression profiling experiments performed on the Affymetrix Human Genome U133 Plus 2.0 chip were obtained from the CCLE for all 15 cell lines. The mRNA expression pattern across all 15 samples for each of the genes was then correlated with the IC50 values. Similar correlation analysis was performed using OCR/ECAR values for each cell line.

The subject of another assay is MCT1-null KBM7 cells. Kind of assay: Cell survival assay, MCT1-null KBM7 clones. The assay is classed as cell-based, human. On the procedure: A haploid cell genetic screen with 3-BrPA was performed using 100 million mutagenized KBM7 cells as described previously^29. Mutagenized haploid KBM-7 cells were exposed to 50 μM 3-BrPA for 3 weeks. Surviving clones were harvested and genomic DNA was isolated and insertions were amplified. The sequences flanking retroviral insertion sites were mapped to the human genome using inverse PCR followed by Ilium in a sequencing. Genomic regions with a high density of insertions were identified using the proximity index for a given insertion. Additionally, the statistical enrichment of insertions at a given locus in the selected population was calculated by comparing the number of inactivating insertions to those in the untreated control dataset via a Fisher's Exact Test. Individual clones were isolated among 50 different clones and genomic DNA for individually selected clones were isolated using a genomic DNA isolation kit (Qiagen). Genomic insertions were identified by inverse PCR and subsequent sequencing as described previously^24.
Cell lines (5,000-20,000) were seeded in 96-well plates and treated with indicated amounts of 3-BrPA. After 3 days of treatment, CellTiter-Glo (Promega) and/or CyQuant (Invitrogen) were used to measure survival percentage for each concentration compared to untreated cells. […]

Assay [1] deals with MDA-MB-231 cells stably expressing MCT1. Kind of assay: Subcutaneous MDA-MB-231 xenografts in nude mice. The assay is classed as in vivo. The settings on record: tumors with forced MCT1 expression vs untreated or GFP-expressing, 8 mg/kg, 3 weeks. The protocol:
All animal studies and procedures were approved by the MIT Institutional Animal Care and Use Committee. 6-10 week old nude mice (Taconic) were used for generating all xenografts. In subcutaneous xenografts, mice were injected at two sites in the dorsal region, under isofluorane anesthesia with 100 μl/injection of tumor cell suspension in RPMI with 20% matrigel. 2.5 million MDA-MB-231 cells were injected. After 2 weeks, tumors were measured and mice were separated for PBS and 3-BrPA treatment (8 mg/kg). After 3 weeks, tumors were harvested, their dimensions were measured with a caliper and tumor volume estimated according to the formula: (0.5*W*L*L). Tumors were fixed in formalin for later processing.
To test if MCT1 expression can affect the sensitivity of established tumors to 3-BrPA, parental MDA-MB-231 cells, which express low levels of MCT1 (Supplemental FIG. 4), were injected subcutaneously into the left flanks of Nude mice, while MDA-MB-231 cells stably expressing MCT1 were injected into the contralateral flanks of the same animals. We allowed palpable subcutaneous tumors to form for 2 weeks before beginning 3-BrPA administration.

The test system of the next assay is ER negative cells. Kind of assay: 3-BrPA sensitivity of ER negative tumor cell lines. Type of assay: cell-based. To be noted: MCT1 expressed at high levels.
The next assay deals with MDA-MB-453 cells. Kind of assay: Cell survival assay, MDA-MB-453. The assay is classed as cell-based, human. To be noted: MDA-MB-453, low MCT1 level. The protocol:
as §1, §2

Take `O=C(O)C(=O)CBr` [3-BrPA, 3-bromopyruvic acid]: the “sensitivity to 3-BrPA” value is reported as “resistant” in the assay with SK-BR-3 cells (SK-BR-3, low MCT1 level); “highly sensitive” with ER negative cells; “resistant” in the assay with MDA-MB-453 cells. Further, in the assay on SK-BR-3 cells (SK-BR-3 stably expressing MCT1 cDNA), the “sensitivity to 3-BrPA with stable expression of MCT1” value is listed as “sufficient to sensitize”. Further, in the assay on MCT1-null KBM7 cells (MCT1-null KBM7 cells with exogenous MCT1), the “sensitivity to 3-BrPA after re-expression of MCT1” value is “nearly completely restored their sensitivity”. Also, the “resistance to 3-BrPA” value with MCT1-null KBM7 cells (MCT1-null KBM7 clones (Clone A and B), 50 μM, 3 days) is “completely resistant”. Besides, the “tumor size after 3-BrPA treatment” value in assay [1] is “significantly smaller”.
